Tested on: HLE:α1 PI complexes
Assay: Decrease in HLE:α1 PI complexes formed in A23187-stimulated human blood (ELISA)
Type: cell-based
Conditions: after treatment with A23187, 100 μM, 30 minutes
Protocol: The blood was then incubated for 30 minutes at 37° C. with 100 μM A23187 (CAL. BIOCHEM.) to stimulate the release of HLE from polymorphonuclear leukocytes. Platelet rich plasma was removed from each sample and prepared for the analysis of HLE:α1 PI complexes by ELISA, and Aα(1-21) by specific RIA.
(Compound B* differs from Compound B only by the substituent on the phenoxy.) A23187, 100 μM, was added and the blood was incubated for an additional 30 minutes. The amounts of reactivation product and α1 PI:elastase complex in the plasma were determined. The total concentration of α1 PI:Elastase complexes formed was 139 μM after treatment with A23187.

SMILES: CNc1ccc2oc(C[C@H]3O[C@@]4(CC[C@H]3C)O[C@H]([C@H](C)C(=O)c3ccc[nH]3)[C@H](C)C[C@H]4C)nc2c1C(=O)O [Compound A23187]
- total concentration of α1 PI:Elastase complexes formed: 139 µM

— patent US5420010A, “Assay for evaluating inhibition of polymorphonuclear leukocyte elastase by N-substituted azetidinones” (Merck & Co., Inc., priority 1993, dated 1995)
